Measurements: US20090042865A1, “DNA-PK INHIBITORS” (priority 2007, published 2009)
Read-outs that look alike come from different tables or passages of the source.

How the values were obtained:
DNA-PK = DNA-PK (Homo sapiens, UniProt P78527); assay: DNA-PK inhibition assay (ELISA, phosphorylation of GST-p53N66); assay type: biochemical, Mammalian (isolated from HeLa cell nuclear extract)
Protocol: In order to assess the inhibitory action of the compounds against DNA-PK in vitro, the following assay was used to determine IC50 values.
To the assay mix, varying concentrations of inhibitor (in DMSO at a final concentration of 1%) were added. After 10 minutes of incubation, ATP was added to give a final concentration of 50 μM along with a 30mer double stranded DNA oligonucleotide (final concentration of 0.5 ng/ml) to initiate the reaction. After 1 hour with shaking, 150 μl of phosphate buffered saline (PBS) was added to the reaction and 5 μl then transferred to a 96 well opaque white plate containing 45 μl of PBS per well where the GSTp53N66 substrate was allowed to bind to the wells for 1 hour. To detect the phosphorylation event on the serine 15 residue of p53 elicited by DNA-PK a p53 phosphoserine-15 antibody (Cell Signaling Technology) was used in a basic ELISA procedure. An anti-rabbit HRP conjugated secondary antibody (Pierce) was then employed in the ELISA before the addition of chemiluminescence reagent (NEN Renaissance) to detect the signal as measured by chemiluminescent counting via a TopCount NXT (Packard).
The enzyme activity for each compound is then calculated using the following equation: […]
These are determined over a range of different concentrations, normally from 10 μM down to 0.001 μM. Such IC50 values are used as comparative values to identify increased compound potencies.

cells = conditions: cited from earlier work
PI 3-kinase = conditions: stated to be the same as towards DNA-PK; cited from earlier work
HeLa cells = assay: Survival Enhancement Ratio, clonogenic survival assay after 2 Gray irradiation; assay type: cell-based; conditions: prior-art compound of WO 03/024949; concentration not given
Protocol: The Survival Enhancement Ratio (SER) is a ratio of the enhancement of cell kill elicited by the DNA-PK inhibitor after 2 Grays of irradiation compared to […]. DNA-PK inhibitors were used at a concentration of 25, 50, 100 and/or 500 nM. Radiation was delivered by a Faxitron 43855D machine at a dose rate of 1 Gy pre minute The SER at 2 Gray irradiation was calculated from the formula:
The degree of cell killing was monitored by a standard clonogenic survival assay. Briefly, tissue culture treated 6-well plates were seeded with HeLa cells at an appropriate concentration to give 100-200 colonies per well and returned to the incubator in order to allow the cells to attach. Four hours later, compound or vehicle control was added to the cells. The cells were then incubated for 1 hour in the presence of inhibitor prior to irradiation at 2 Gray using a Faxitron 43855D cabinet X-ray machine. The cells were then incubated for a further 16 hours before the media was replaced with fresh media in the absence of DNA-PK inhibitor. After 8 days, colonies formed were fixed and stained with Giemsa (Sigma, Poole, UK) and scored using an automated colony counter (Oxford Optronics Ltd, Oxford, UK). The data was calculated as described above.

[1] = IC50 (mean IC50 of the compounds), mean, DNA-PK from HeLa nuclear extract, 50 μM ATP
[2] = mean, DNA-PK from HeLa nuclear extract, 50 μM ATP, read-out: IC50 (mean IC50 of the compounds)

Row | SMILES | IC50 (DNA-PK; [1]) [µM] | IC50 (DNA-PK; mean IC50, read-out: IC50) [µM] | IC50 (DNA-PK; [2]) [µM] | other results
1 | O=c1cc(N2CCOCC2)oc2c(-c3ccc(N4CCNCC4)c4c3sc3ccccc34)cccc12 [Compound 1a, 2-Morpholin-4-yl-8-(1-piperazin-1-yl-dibenzothiophen-4-yl)-chromen-4-one] | 0.011 |  |  | IC50 (DNA-PK; IC50, mean IC50): < 0.05 µM
2 | CCN1CCN(c2ccc(-c3cccc4c(=O)cc(N5CCOCC5)oc34)c3sc4ccccc4c23)CC1 [Compound 1b] | 0.008 |  |  | IC50 (DNA-PK; IC50, mean IC50): < 0.05 µM
3 | CC(C)(C)OC(=O)N1CCN(c2ccc(-c3cccc4c(=O)cc(N5CCOCC5)oc34)c3sc4ccccc4c23)CC1 [Compound 1c, 4-[4-(2-Morpholin-4-yl-4-oxo-4H-chromen-8-yl)-dibenzothiophen-1-yl]-piperazine-1-carboxylic acid tert-butyl ester] | 0.447 |  |  | 
4 | O=c1cc(N2CCOCC2)oc2c(-c3ccc(N4CCN(CCOCCO)CC4)c4c3sc3ccccc34)cccc12 [Compound 1d] | 0.008 |  |  | IC50 (DNA-PK; IC50, mean IC50): < 0.05 µM
5 | CC(C)N1CCN(c2ccc(-c3cccc4c(=O)cc(N5CCOCC5)oc34)c3sc4ccccc4c23)CC1 [Compound 1e] | 0.017 |  |  | IC50 (DNA-PK; IC50, mean IC50): < 0.05 µM
6 | O=c1cc(N2CCOCC2)oc2c(-c3ccc(N4CCC(N5CCOCC5)CC4)c4c3sc3ccccc34)cccc12 [Compound 1f] | 0.024 |  |  | IC50 (DNA-PK; IC50, mean IC50): < 0.05 µM
7 | CC1CN(c2ccc(-c3cccc4c(=O)cc(N5CCOCC5)oc34)c3sc4ccccc4c23)CC(C)N1 (stereo not shown) [Compound 1g] | 0.012 |  |  | IC50 (DNA-PK; IC50, mean IC50): < 0.05 µM
8 | CC(C)(C)OC(=O)N1CCCN(c2ccc(-c3cccc4c(=O)cc(N5CCOCC5)oc34)c3sc4ccccc4c23)CC1 [Compound 1h] | 0.086 |  |  | 
9 | CC(=O)N1CCN(c2ccc(-c3cccc4c(=O)cc(N5CCOCC5)oc34)c3sc4ccccc4c23)CC1 [Compound 1j] | 0.031 |  |  | 
10 | O=C(C1CCCO1)N1CCN(c2ccc(-c3cccc4c(=O)cc(N5CCOCC5)oc34)c3sc4ccccc4c23)CC1 (stereo not shown) [Compound 1k] | 0.08 |  |  | 
11 | O=c1cc(N2CCOCC2)oc2c(-c3ccc(N4CCCC(F)C4)c4c3sc3ccccc34)cccc12 (stereo not shown) [Compound 1m] | 0.136 |  |  | 
12 | CN(C)C1CCN(c2ccc(-c3cccc4c(=O)cc(N5CCOCC5)oc34)c3sc4ccccc4c23)CC1 [Compound 1n] | 0.013 |  |  | IC50 (DNA-PK; IC50, mean IC50): < 0.05 µM
13 | CCOC1CCN(c2ccc(-c3cccc4c(=O)cc(N5CCOCC5)oc34)c3sc4ccccc4c23)CC1 [Compound 1o] | 0.4 |  |  | 
14 | COC1CCN(c2ccc(-c3cccc4c(=O)cc(N5CCOCC5)oc34)c3sc4ccccc4c23)CC1 [Compound 1p] | 0.173 |  |  | 
15 | CC(=O)C(C)N1CCN(c2ccc(-c3cccc4c(=O)cc(N5CCOCC5)oc34)c3sc4ccccc4c23)CC1 (stereo not shown) [Compound 2a] |  | < 0.05 | 0.011 | 
16 | COCCOCCN1CCN(c2ccc(-c3cccc4c(=O)cc(N5CCOCC5)oc34)c3sc4ccccc4c23)CC1 [Compound 2b] |  | < 0.05 | 0.004 | 
17 | COCCN1CCN(c2ccc(-c3cccc4c(=O)cc(N5CCOCC5)oc34)c3sc4ccccc4c23)CC1 [Compound 2c] |  | < 0.05 | 0.006 | 
18 | CCOCCN1CCN(c2ccc(-c3cccc4c(=O)cc(N5CCOCC5)oc34)c3sc4ccccc4c23)CC1 [Compound 2e] |  | < 0.05 | 0.007 | 
19 | CCCN1CCN(c2ccc(-c3cccc4c(=O)cc(N5CCOCC5)oc34)c3sc4ccccc4c23)CC1 [Compound 2f] |  | < 0.05 | 0.011 | 
20 | O=c1cc(N2CCOCC2)oc2c(-c3ccc(N4CCN(CC5CC5)CC4)c4c3sc3ccccc34)cccc12 [Compound 2g] |  | < 0.05 | 0.017 | 
21 | O=c1cc(N2CCOCC2)oc2c(-c3ccc(N4CCN(CC5CCCO5)CC4)c4c3sc3ccccc34)cccc12 (stereo not shown) [Compound 2i] |  |  | 0.021 | 
22 | CCCOCCN1CCN(c2ccc(-c3cccc4c(=O)cc(N5CCOCC5)oc34)c3sc4ccccc4c23)CC1 [Compound 2j] |  |  | 0.009 | 
23 | O=c1cc(N2CCOCC2)oc2c(-c3ccc(N4CCN(C5CCCCC5O)CC4)c4c3sc3ccccc34)cccc12 (stereo not shown) [Compound 2k] |  |  | 0.043 | 
24 | NCCN1CCN(c2ccc(-c3cccc4c(=O)cc(N5CCOCC5)oc34)c3sc4ccccc4c23)CC1 [Compound 2l] |  |  | 0.007 | 
25 | O=c1cc(N2CCOCC2)oc2c(-c3ccc(N4CCN(CCO)CC4)c4c3sc3ccccc34)cccc12 [Compound 2m] |  | < 0.05 | 0.003 | 
26 | CC(C)NC(=O)CN1CCN(c2ccc(-c3cccc4c(=O)cc(N5CCOCC5)oc34)c3sc4ccccc4c23)CC1 [Compound 2o] |  | < 0.05 | 0.007 | 
27 | CS(=O)(=O)N1CCN(c2ccc(-c3cccc4c(=O)cc(N5CCOCC5)oc34)c3sc4ccccc4c23)CC1 [Compound 3a] |  | < 0.05 | 0.024 | 
28 | CCS(=O)(=O)N1CCN(c2ccc(-c3cccc4c(=O)cc(N5CCOCC5)oc34)c3sc4ccccc4c23)CC1 [Compound 3b] |  | < 0.05 | 0.021 | 
29 | O=c1cc(N2CCOCC2)oc2c(-c3ccccc3)cccc12 [LY294002] |  |  |  | sensitisation of cells to the effects of IR (cells): weakly sensitise; IC50 (PI 3-kinase): ~1 µM
30 | O=c1cc(N2CCOCC2)oc2c(-c3cccc4c3sc3ccccc34)cccc12 [reference compound] |  |  |  | IC50 (DNA-PK; IC50, prior-art compound of WO 03/024949, methods as below in the patent): 0.01 to 0.012 µM; SER (HeLa cells): 1.3
